Experimental data from US7473683B2, “Nonpolar thymidine analogs” (The Board of Trustees of the Leland Stanford Junior …, priority 2005, dated 2009).

Legend:
[1] = system: self-complementary strands (5′-XCGCGCG); test: dangling end thermal denaturation studies (base stacking) with self-complementary strands; format: physicochemical; conditions: for ΔG°37 (van't Hoff) / ΔH° (van't Hoff) / ΔS° (van't Hoff) / ΔΔG° stacking per base / Tm / ΔG°37 (fits) / ΔTm: dangling residue X in 5′-XCGCGCG; for Tm: 5.0 μM DNA strand, 1M NaCl, 10 mM phosphate buffer (pH 7.0), 0.1 mM EDTA, 280 nm; for ΔG°37 (fits): curve fits; for ΔTm: versus duplex with no dangling residue
Method: (§1) Thermal Denaturation Studies. After the samples were prepared in melting buffer (1M NaCl, 10 mM phosphate buffer (pH 7.0) with 0.1 mM EDTA), they were heated to 95° C. and allowed to slowly cool at a rate of 1° C./min to 5° C. The melting studies were carried out in Teflon-stoppered 1 cm path length quartz cells on a Varian Cary 1 UV-vis spectophotometer equipped with thermoprogrammer. Absorbance was monitored at 280 nm for stacking and at 260 nm for base pairing. […] The data were analyzed by the melt curve processing program, MeltWin v. 3.0. Melting temperatures (Tm) were determined by computer-fit of the first derivative of absorbance with respect to 1/T. Uncertainty in Tm is estimated at ±0.5° C. based on repetitions of experiments. Free-energy values were derived by two methods: (1) computer-fitting the denaturation data with an algorithm employing linear sloping baselines, using the two-state approximation for melting. Fits were excellent, with χ^−2 values of 10^−6 or better. (2) Van't Hoff thermodynamic parameters were derived from linear plots of 1/Tm vs In[CT] by measuring Tm as a function of concentration.
Sequence Design. We incorporated all five phosphoramidites into three new sequence contexts each for further study of pairing and stacking properties. The first is a self-complementary sequence designed to form a hexamer duplex, with the nonnatural base analogue overhanging (dangling) at the 5′ ends (Table 2). This same sequence context has been used previously in several studies of DNA base stacking. The second and third contexts comprise a pair of 12mer sequences that form duplexes with well-behaved two-state behavior. One strand is pyrimidine-rich, while the other is purine-rich; we substituted each analogue at a central position of each strand to test two widely varied sequence contexts for pairing effects.
Base Stacking. DNA base stacking stability has been correlated with the size of compounds when mono-, bi-, tri-, and tetra-cyclic base analogues were compared. To test this with the present series, which varies in size by a smaller amount, we examined the short self-complementary oligonucleotides by thermal denaturation experiments. The self-complementary duplexes contained the modified nucleosides as a 5′ overhanging base.

[2] = system: normal and bypass (SOS-induced) polymerases in E. coli; test: bacterial replication assay: bypass efficiency and fidelity of analogs in single-stranded M13 vector passaged through E. coli; format: cell-based; conditions: for single-base deletions: diminished when bypass polymerases were induced; for difference between the match and mismatch efficiency, increase in cells expressing induced bypass polymerases: SOS-induced bypass polymerases
Text: Bacterial replication assay. The assay for bypass efficiency fidelity is briefly described in the text.
To ascertain the influence of sub-Angstrom size increases on the template coding properties of the T analogs in vivo, we ligated oligonucleotides containing each analog into a single-stranded M13 vector, which were then passaged through E. coli and scored for bypass efficiency and mutagenesis (fidelity) as described. We chose E. coli deficient in AlkB to eliminate the possibility of metabolization of the H analog, which was subsequently found to have no influence on the results when compared with AlkB-proficient cells. Bypass experiments shown in FIG. 7 were performed in a competitive manner, and efficiencies were evaluated by PCR-based quantitation of successfully replicated progeny DNA. SOS-induction of bypass polymerases by prior irradiation of E. coli with ultraviolet light increased trans-analog synthesis approximately 2-fold for all thymine analogs. […] It is noteworthy that the difference between the match and mismatch efficiency increased in cells expressing induced bypass polymerases: L (0.2), B (8.0), I (17.4), implying higher fidelity for the larger isosteres for bypass polymerases, which may contain larger or looser active sites.

[3] = system: DNA Pol I (Klenow fragment, exo-); test: steady-state kinetics of single nucleotide insertions, thymidine analogues in the template; format: biochemical, E. coli; conditions: for Km / Vmax: 37° C.; for Vmax: 10 mM MgCl2, pH 7.5, normalized to lowest enzyme concentration; for rel. efficiency: relative to insertion of dATP opposite T
Method: In vitro steady-state kinetics. As polymerase substrates we used 28 mer/23 mer template-primer duplexes having the sequence (5′-ACT GXT CTCCCTATAGTGAGTCGTATTA [SEQ ID NO:1])·(5′-TAATACGACTCACTATAGGGAGA [SEQ ID NO:2]). Kinetics were measured at 37° C. in a buffer containing 10 mM Mg^2+. The primer was 5′ end-labeled and was extended by the polymerase in the presence of a single dNTP species over varied concentration and time. Products of single nucleotide insertions were resolved from unreacted primer by 20% denaturing gel electrophoresis, and were quantitated by autoradiography. Details of the kinetics experiments are given in the Supporting Data.
We chose DNA polymerase I (Klenow fragment, exonuclease-deficient) as an ideal candidate for initial study, as it is enzymatically well-characterized among replicative enzymes, and yet is relatively small and acts as a single subunit. We carried out kinetics studies of single nucleotide insertions in the steady state, using a gel electrophoresis-based assay.
Data for single nucleotide insertion kinetics in the steady-state. The enzyme was the Klenow fragment of DNA pol I from E. coli (exonuclease deficient). Methods are as described above.

[4] = system: 12-base pair duplex 5′-CTTTTCXTTCTT / 3′-GAAAAGXAAGAA; test: thermal denaturation, base pairing near the center of a 12-base pair duplex; format: physicochemical; conditions: pyrimidine- or purine-rich strand, compared to T
Method: as §1
Sequence Design. We incorporated all five phosphoramidites into three new sequence contexts each for further study of pairing and stacking properties. […]

[5] = insertion of dATP opposite template base
[6] = insertion of dCTP opposite template base
[7] = insertion of dGTP opposite template base
[8] = insertion of dTTP opposite template base

Molecule	ΔG°37 (van't Hoff) [1]	ΔH° (van't Hoff) [1]	ΔS° (van't Hoff) [1]	ΔΔG° stacking per base [1]	Tm [1]	ΔG°37 (fits) [1]	ΔTm [1]	Km [3, 5]	Vmax [3, 5]	rel. efficiency [3, 5]	Km [3, 6]	Vmax [3, 6]	rel. efficiency [3, 6]	Km [3, 7]	Vmax [3, 7]	rel. efficiency [3, 7]	Km [3, 8]	Vmax [3, 8]	rel. efficiency [3, 8]	difference between the match and mismatch efficiency, increase in cells expressing induced bypass polymerases ([2]; E. coli)	other results
2,4-diHydrogentoluene	-9.7 ± 0.1 kcal/mol	-55.4 ± 2.0 kcal/mol	−147 ± 6 cal/K · mol	0.95 kcal/mol	49.7 °C	-9.7 ± 0.0 kcal/mol	11.1 °C	20 ± 2 µM	0.90 ± 0.18 % · m in^−1	3.5 × 10^−3	100 ± 60 µM	0.031 ± 0.006 % · m in^−1	2.4 × 10^−5	600 ± 210 µM	0.025 ± 0.007 % · m in^−1	3.2 × 10^−6	61 ± 37 µM	0.062 ± 0.022 % · m in^−1	7.7 × 10^−5	–	stabilization of the duplex by 5′ overhanging base (stacking) ([1]; compared with natural thymidine in the same position): least stabilizing of the series; single-base deletions ([2]; E. coli): evident
Cc1ccc(Br)cc1Br [B, 2,4-dibromotoluene]	-10.8 ± 0.1 kcal/mol	-62.0 ± 2.1 kcal/mol	−165 ± 7 cal/K · mol	1.50 kcal/mol	54.3 °C	-10.2 ± 0.0 kcal/mol	15.7 °C	21 ± 5 µM	12 ± 1 % · m in^−1	4.4 × 10^−2	79 ± 33 µM	0.038 ± 0.005 % · m in^−1	3.7 × 10^−5	220 ± 100 µM	0.023 ± 0.005 % · m in^−1	7.7 × 10^−6	37 ± 12 µM	0.20 ± 0.03 % · m in^−1	4.2 × 10^−4	8.0	–
Cc1ccc(I)cc1I [I, 2,4-diiodotoluene]	-10.4 ± 0.2 kcal/mol	-55.7 ± 4.4 kcal/mol	−146 ± 14 cal/K · mol	1.30 kcal/mol	53.8 °C	-10.2 ± 0.1 kcal/mol	15.2 °C	26 ± 11 µM	1.3 ± 0.2 % · m in^−1	3.8 × 10^−3	20 ± 8 µM	0.036 ± 0.001 % · m in^−1	1.4 × 10^−4	58 ± 18 µM	0.017 ± 0.001 % · m in^−1	2.2 × 10^−5	48 ± 39 µM	0.085 ± 0.037 % · m in^−1	1.4 × 10^−4	17.4	pairing stability opposite natural bases [4]: least destabilizing; single-base deletions ([2]; E. coli): evident
Cc1ccc(Cl)cc1Cl [L, 2,4-dichlorotoluene]	-10.0 ± 0.1 kcal/mol	-52.7 ± 1.2 kcal/mol	−138 ± 4 cal/K · mol	1.10 kcal/mol	52.3 °C	-10.1 ± 0.0 kcal/mol	13.7 °C	3.3 ± 2.8 µM	27 ± 5 % · m in^−1	6.3 × 10^−1	25 ± 13 µM	0.021 ± 0.003 % · m in^−1	6.5 × 10^−5	190 ± 90 µM	0.029 ± 0.007 % · m in^−1	1.2 × 10^−5	18 ± 18 µM	0.13 ± 0.04 % · m in^−1	5.5 × 10^−4	0.2	replication bypass efficiency ([2]; E. coli, normal and bypass polymerases, competitive, PCR-based quantitation of progeny DNA): maximum bypass; replication fidelity in E. coli ([2]; normal and bypass polymerases): maximal in vivo fidelity
difluorotoluene [reference compound]	-10.1 ± 0.0 kcal/mol	-54.5 ± 0.9 kcal/mol	−143 ± 3 cal/K · mol	1.15 kcal/mol	52.4 °C	-10.1 ± 0.0 kcal/mol	13.8 °C	9.4 ± 2.9 µM	24 ± 3 % · m in^−1	2.0 × 10^−1	33 ± 11 µM	0.071 ± 0.011 % · m in^−1	1.7 × 10^−4	36 ± 12 µM	0.0071 ± 0.0008 % · m in^−1	1.5 × 10^−5	22 ± 13 µM	0.12 ± 0.03 % · m in^−1	4.2 × 10^−4	–	–
